Positions count from the first letter of the chain named. “Also recorded” adds a separate entry of the source.
How the values were obtained:
wild type rat CCK1R = biological target: T1, wild type rat CCK1R (Rattus norvegicus, UniProt P30551); test: Competition binding with 125I-BDZ-1, receptor expressed in COS cells
T1 sequence (P30551 1-444): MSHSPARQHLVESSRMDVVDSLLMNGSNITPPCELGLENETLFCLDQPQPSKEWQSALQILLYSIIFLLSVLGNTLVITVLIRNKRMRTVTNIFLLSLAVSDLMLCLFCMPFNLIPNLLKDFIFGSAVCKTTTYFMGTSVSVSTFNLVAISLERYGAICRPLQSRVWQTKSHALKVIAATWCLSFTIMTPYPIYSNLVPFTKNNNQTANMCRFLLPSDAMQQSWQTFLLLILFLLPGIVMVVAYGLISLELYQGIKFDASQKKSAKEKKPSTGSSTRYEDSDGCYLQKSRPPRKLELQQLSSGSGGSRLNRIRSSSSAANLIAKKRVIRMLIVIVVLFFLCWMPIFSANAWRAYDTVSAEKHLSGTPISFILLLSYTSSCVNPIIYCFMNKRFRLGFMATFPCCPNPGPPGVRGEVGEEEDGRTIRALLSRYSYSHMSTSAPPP

rCCK1R-Ala317,321,325 = biological target: T2, rCCK1R-Ala317,321,325 (Rattus norvegicus, UniProt P30551, I332A/L340A/V336A); type: binding; conditions: non-dimerizing rat mutant
T2 sequence (P30551 1-444 I332A/V336A/L340A): T1 sequence (P30551 1-444) with I332A, V336A, L340A

CCK1R WT [1] = biological target: T3, CCK1R WT (Homo sapiens, UniProt P32238); test: Competition binding with 125I-BDZ-1, CHO membranes; conditions: for α (cooperativity constant): 125I-BDZ-1 radioligand, allosteric ternary complex model
T3 sequence (P32238 1-428): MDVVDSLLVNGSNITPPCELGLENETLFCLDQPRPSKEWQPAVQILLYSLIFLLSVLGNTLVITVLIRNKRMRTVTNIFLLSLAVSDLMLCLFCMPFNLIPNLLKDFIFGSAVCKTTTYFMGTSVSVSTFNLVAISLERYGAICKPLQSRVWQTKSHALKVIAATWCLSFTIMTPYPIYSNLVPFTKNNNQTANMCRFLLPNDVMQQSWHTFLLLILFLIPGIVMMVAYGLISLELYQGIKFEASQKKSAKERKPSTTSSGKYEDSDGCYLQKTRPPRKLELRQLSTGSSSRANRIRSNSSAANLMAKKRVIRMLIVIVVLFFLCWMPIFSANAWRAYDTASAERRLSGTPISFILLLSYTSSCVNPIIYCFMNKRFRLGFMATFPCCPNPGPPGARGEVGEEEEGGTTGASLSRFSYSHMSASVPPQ

CCK2R WT [2] = biological target: T4, CCK2R WT (Homo sapiens, UniProt P32239); test: Competition binding with 125I-BDZ-2, CHO membranes; conditions: 125I-BDZ-2 radioligand; allosteric ternary complex model
T4 sequence (P32239 1-447): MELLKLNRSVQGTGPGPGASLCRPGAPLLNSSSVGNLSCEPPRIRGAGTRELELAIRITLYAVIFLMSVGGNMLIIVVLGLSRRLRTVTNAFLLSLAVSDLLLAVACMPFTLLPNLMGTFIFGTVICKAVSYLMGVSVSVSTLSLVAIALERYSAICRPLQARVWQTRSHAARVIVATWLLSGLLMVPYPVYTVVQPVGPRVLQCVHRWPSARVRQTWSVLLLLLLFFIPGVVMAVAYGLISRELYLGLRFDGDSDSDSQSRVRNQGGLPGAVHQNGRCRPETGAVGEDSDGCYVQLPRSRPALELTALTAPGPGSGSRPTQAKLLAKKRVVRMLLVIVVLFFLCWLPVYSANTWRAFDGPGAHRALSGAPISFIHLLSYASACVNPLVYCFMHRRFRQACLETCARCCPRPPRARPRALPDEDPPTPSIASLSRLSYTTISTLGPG

CCK1R WT [3] = biological target: T3, CCK1R WT; test: Competition binding with 125I-CCK, CHO membranes; conditions: 125I-CCK radioligand; allosteric ternary complex model
CCK2R WT [4] = biological target: T4, CCK2R WT; test: Competition binding with 125I-CCK, CHO membranes; conditions: for α (cooperativity constant): 125I-CCK radioligand, allosteric ternary complex model; for inhibition of saturable 125I-CCK binding: maximal inhibition at CCK2R
CCK1R WT [5] = biological target: T3, CCK1R WT; conditions: compared with CCK at the CCK1R
CCK2R WT [6] = biological target: T4, CCK2R WT; test: Intracellular calcium response, CHO-CCK2R cells; type: cell-based

SMILES | pKi, BDZ-1 binding affinity (wild type rat CCK1R) | pKi, BDZ-1 binding affinity (rCCK1R-Ala317,321,325) | pKi, BDZ-1 binding affinity (CCK1R WT [1]; wild type human CCK1R) | α (cooperativity constant) (CCK2R WT [2]) | α (cooperativity constant) (CCK1R WT [3]) | α (cooperativity constant) (CCK2R WT [4]) | inhibition of saturable 125I-CCK binding (CCK2R WT [4]) | maximal intracellular calcium response (CCK1R WT [5]) | α (cooperativity constant) (CCK1R WT [1]) | biological (agonist) response at the CCK2R (CCK2R WT [6])
CN1C(=O)[C@@H](NC(=O)Nc2cccc(I)c2)N=C(c2ccccc2)c2ccccc21 [BDZ-1, (S)-1-(3-iodophenyl)-3-(1-methyl-2-oxo-5-phenyl-2,3-dihydro-1H-enzo[e][1,4]diazepin-3-yl)urea] | 9.55 ± 0.25 | 9.66 ± 0.09 | 8.38 ± 0.16 | – | – | – | – | – | – | –
CC(C)N(Cc1ccccc1)C(=O)CN1C(=O)[C@@H](Cc2c[nH]c3ccccc23)c2nnc(-c3ccccc3)n2-c2ccccc21 [CE-326597, N-benzyl-2-[(4S)-4-(1H-indol-3-ylmethyl)-5-oxo-1-phenyl-4,5-dihydro-6H-[1,2,4]triazolo[4,3-a][1,5]benzodiazepin-6-yl]-N-isopropylacetamide] | – | – | – | 0.47 ± 0.06 | ~0.00 | 0.32 ± 0.01 | approximately 60% | not statistically different from those elicited by CCK | 0.54 ± 0.06 | weak partial agonist; also recorded: very weak partial agonist
Cc1cc(C)cc(C[C@H]2CCCCN2C(=O)CN2C(=O)[C@@H](Cc3n[nH]c4ccccc34)c3nnc(-c4ccccc4)n3-c3ccccc32)c1 [PF-04756956, (4S)-6-{2-[(2R)-2-(3,5-dimethylbenzyl)piperidin-1-yl]-2-oxoethyl}-4-(1H-indazol-3-ylmethyl)-1-phenyl-4H-[1,2,4]triazolo[4,3-a][1,5]benzodiazepin-5(6H)-one] | – | – | – | 0.60 ± 0.04 | ~0.0 | 0.32 ± 0.07 | approximately 60% | not statistically different from those elicited by CCK | 0.65 ± 0.08 | no agonist activity at all; also recorded: no biological response

— article PMC4790425 (Journal of medicinal chemistry, 2015)
